According to US8653043B2, “Enhanced neoglycosides through neoglycosylation and methods of use thereof” (Wisconsin Alumni Research Foundation, priority 2009, dated 2014):
pIC50: −log10 of the molar value.

How the values were obtained:
human cancer cell lines = assay: Cytotoxicity assay (calcein AM / CellTiter-Glo) in carcinoma cell lines; type: cell-based; details: for cytotoxic potency compared to parent 1: in one or more cell lines, comparison with betulinic acid (1); for potency improvement of amide-linked versus ester-linked neoglycoside: ABA compound compared with ester analog bearing the same sugar; for improvement of cytotoxic activity over the parent natural product: versus parent 1, breast, colorectal, lung and prostate carcinoma lines
Method: The cytoxicity of the library members was assessed in seven human cancer cell lines representing a broad range of carcinomas including breast, colorectal, CNS, lung and prostate.
The cytoxicity of ABA1-5 was evaluated in human cell lines of breast, colorectal, lung and prostate carcinomas.
Testing was performed by the Keck-UWCCC Small Molecule Screening Facility (Madison, Wis.). Carcinoma cell lines were maintained and harvested as previously reported, along with compound handling and assay set up.^21 Cells were plated in 50 μL volumes in 384-well clear bottom tissue culture plates. Serial dilutions of 30 mM DMSO compound stock solutions were done in 96-well plates using a BioTek Precision XS liquid handler (Winooski, Vt.) to a concentration 100× greater than that of the most dilute assay. Final dilutions were performed in a 384-well plate in quadruplicate using a Beckman-Coulter Biomek FX liquid handler with a 384 channel pipetting head (Fullerton, Calif.) and were stored at −20° C. when not in use. Compounds were then added to the culture plates by the Biomek FX handler and were incubated at 37° C. for 72 h. The calcein AM reagent (acetoxymethyl ester; 30 μL, 10 μM) was then added, the cells were incubated for 30 m at 37° C., and plates were read for fluorescent emission (535 nm). Cell titer-glo reagent (15 μL; Promega Corp., Madison, Wis.) was added and the plates incubated for 10 m at room temperature with gentle agitation to lyse the cells. Each plate was reexamined for luminescence to verify inhibition. IC50 values for cytotoxicity were determined using XLift 4.2 as previously reported.^21

[1] = system: HIV-1 virus (IIIB strain); assay: Anti-HIV-1 cytoprotection (CPE) assay in CEM-SS cells; type: cell-based; details: 1 μM; HIV-1 IIIB-infected CEM-SS cells
Method: To assess the corresponding impact of differential glycosylation upon antiviral activity, the entire set of compounds was subsequently tested in a single dose (10 μM) anti-HIV-1 assay against CEM-SS cells (i.e., CD4+ T lymphocytes) infected with the IIIB strain of HIV-1. Compound efficacy was determined by the percent increase of cytoprotective effect (CPE), which is prevention of intercellular virus replication, over untreated HIV-1-infected cells.
Both cells and virus were mixed with compound (10 μM & 1 μM for ABA1-5 and […] for all others) in triplicate in 96-well plates and incubated for six days at 37° C. Compound cytoprotection and cytotoxicity were evaluated using MTS tetrazolium dye (Promega Corp., Madison, Wis.) as previously reported.^23 Each assay plate used the following controls: cells only, cells/virus, cells/compound, compound only. The reverse transcriptase inhibitor AZT and protease inhibitor Indinavir were included as positive controls.

Structure (SMILES)	cytotoxic potency compared to parent 1 (human cancer cell lines)	improvement of cytotoxic activity over the parent natural product (human cancer cell lines) [fold]	further results
C=C(C)[C@@H]1CC[C@]2(C(=O)O)CC[C@]3(C)[C@H](CC[C@@H]4[C@@]5(C)CC[C@H](OC(=O)CN(OC)C6O[C@@H](C)[C@@H](O)[C@@H](O)[C@@H]6O)C(C)(C)[C@@H]5CC[C@]43C)[C@@H]12 (stereo partly drawn) [BA9, (3S)-O-(N-Methoxy-N-L-fucosylglycyl)betulinic acid]	equipotent	–	–
C=C(C)[C@@H]1CC[C@]2(C(=O)O)CC[C@]3(C)[C@H](CCC4[C@@]5(C)CC[C@H](OC(=O)CNOC)C(C)(C)C5CC[C@]43C)C12 (stereo partly drawn) [compound 7, (3S)-O-(N-Methoxyglycyl)betulinic acid]	relatively similar potencies	–	–
C=C(C)[C@@H]1CC[C@]2(C(=O)O)CC[C@]3(C)[C@H](CC[C@@H]4[C@@]5(C)CC[C@H](OC(=O)CN(OC)[C@@H]6O[C@H](CO)[C@@H](O)[C@@H](O)[C@H]6O)C(C)(C)[C@@H]5CC[C@]43C)[C@@H]12 [BA1, (3S)-O-(N-Methoxy-N-β-D-allosylglycyl)betulinic acid]	equipotent	–	–
C=C(C)[C@@H]1CC[C@]2(C(=O)O)CC[C@]3(C)[C@H](CC[C@@H]4[C@@]5(C)CC[C@H](NC(=O)CN(OC)C6OC[C@H](O)[C@H](O)[C@@H]6O)C(C)(C)[C@@H]5CC[C@]43C)[C@@H]12 (stereo partly drawn) [ABA4, (3S)-N-(N′-Methoxy-N′-L-ribosylglycyl)betulinic acid]	–	~2	potency improvement of amide-linked versus ester-linked neoglycoside (human cancer cell lines): ≥ 6 fold
C=C(C)[C@@H]1CC[C@]2(C(=O)O)CC[C@]3(C)C(CCC4[C@@]5(C)CC[C@H](OC(=O)CN(OC)C6O[C@@H](C)[C@H](O)[C@@H](O)[C@H]6O)C(C)(C)C5CC[C@]43C)C12 (stereo partly drawn) [BA27]	–	–	pIC50 (human cancer cell lines; ester-linked BA series, 72 h incubation, cell line not specified / at least one cell line): ≤ 4.60
C=C(C)[C@@H]1CC[C@]2(C(=O)O)CC[C@]3(C)[C@H](CC[C@@H]4[C@@]5(C)CC[C@H](NC(=O)CN(OC)[C@@H]6O[C@H](CO)[C@@H](O)[C@@H](O)[C@@H]6O)C(C)(C)[C@@H]5CC[C@]43C)[C@@H]12 [ABA1, (3S)-N-(N′-Methoxy-N′-β-D-altrosylglycyl)betulinic acid]	–	~2	–
C=C(C)[C@@H]1CC[C@]2(C(=O)O)CC[C@]3(C)[C@H](CC[C@@H]4[C@@]5(C)CC[C@H](NC(=O)CNOC)C(C)(C)[C@@H]5CC[C@]43C)[C@@H]12 [compound 10, (3S)-N-(N′-Methoxyglycyl)aminobetulinic acid]	relatively similar potencies	–	increase in CPE [1]: no noticeable activity
C=C(C)[C@@H]1CC[C@]2(C(=O)O)CC[C@]3(C)[C@H](CC[C@@H]4[C@@]5(C)CC[C@H](NC(=O)CN(OC)C6OC[C@@H](O)[C@H](O)[C@H]6O)C(C)(C)[C@@H]5CC[C@]43C)[C@@H]12 (stereo partly drawn) [ABA5, (3S)-N-(N′-Methoxy-N′-D-xylosylglycyl)betulinic acid]	–	~2	potency improvement of amide-linked versus ester-linked neoglycoside (human cancer cell lines): ≤ 2 fold
C=C(C)[C@@H]1CC[C@]2(C(=O)O)CC[C@]3(C)C(CCC4[C@@]5(C)CC[C@H](OC(=O)CN(OC)[C@H]6OC[C@H](O)[C@@H](O)[C@@H]6O)C(C)(C)C5CC[C@]43C)C12 (stereo partly drawn) [BA32, (3S)-O-(N-Methoxy-N-β-L-xylosylglycyl)betulinic acid]	equipotent	–	–
